Values after ≈ are worked out from the molar mass of the structure shown. Values joined by “and” are separate entries in the source; they are usually repeats but may differ in a detail not shown here. Equal entries are not always repeated. Ends that are not written are not given here.
Columns and labels:
[1] = tested on: E. coli O157: H7 clinical isolate (AC188); test: microbe, parasite or virus in culture; type: cell-based, Escherichia coli O157: H7; conditions: for SI (selectivity index) E. coli O157: H7 AC188: ratio CC50 in VERO cells / MIC in AC188, maximum evaluated concentration used where CC50 not determined
Protocol: (§1) MIC was determined using the microdilution method as described in protocol M07-A9 of the Clinical and Laboratory Standards Institute. Briefly, 1:2 serial dilutions of Ib-M peptides in MHB were placed in a 96-well round-bottom plate at concentrations ranging from 100 to 0.05 μM; or reference antibiotics STP and GNT between 200 to 0.1 μM. The bacterial inoculum was prepared from a subculture of E. coli O157: H7 (ATCC 43888 or AC188) in LBB incubated for 18–24 hours at 35 ± 2°C before to the test. The bacteria suspension was diluted to 1x10^8 colony forming units (CFU)/mL, to obtain a turbidity equivalent to 0.5 on the McFarland scale, confirmed by spectrophotometry upon reaching an absorbance between 0.08–0.1 at a wavelength of 625 nm; then a 1:200 dilution in MHB was performed to obtain a final concentration of 5x10^5 CFU/mL. The diluted bacterial suspension was added to the 96-well plate containing the serially diluted peptides. The final volume of 200 μL per well consisted of 100 μl of the compound and 100 μL of diluted bacteria suspension. Negative and positive growth controls were performed by adding only MHB or E. coli O157: H7 with MHB to the wells, respectively. At the end of the incubation time, MIC was determined as the lowest compound concentration at which no bacterial growth was observed.

[2] = tested on: E. coli O157: H7 (ATCC 43888); test: microbe, parasite or virus in culture; type: cell-based, Escherichia coli O157: H7; conditions: for SI (selectivity index) E. coli O157: H7 ATCC 43888: ratio CC50 in VERO cells / MIC in ATCC 43888, maximum evaluated concentration used where CC50 not determined
Protocol: as §1

[3] = tested on: E. coli O157: H7 clinical isolate (AC188); test: microbe, parasite or virus in culture; type: cell-based, Escherichia coli O157: H7
Protocol: (§2) MBC was determined as described in the M26-A protocol of the CLSI, 1999 [13]. […] Blood agar cultures were incubated at 35 ± 2°C for 18–24 hours, and the number of CFU was estimated.

[4] = tested on: E. coli O157: H7 (ATCC 43888); test: microbe, parasite or virus in culture; type: cell-based, Escherichia coli O157: H7
Protocol: as §2

[5] = tested on: VERO cells (ATCC CCL-81); test: Cytotoxicity, MTT; type: cell-based; conditions: 24 h exposure, 595 nm, mean ± S.D., triplicate in two independent experiments
Protocol: VERO cells at a concentration of 3x10^4 cells/mL were plated in 96 flat-bottom wells and incubated for 24 hours at 37°C in a 5% CO2 atmosphere. Subsequently, the cells were exposed to 1:2 serial dilutions of Ib-M peptides in the range from 400 to 1.6 μM and the reference antibiotics between 3200 and 1.6 μM. Control cells were maintained without peptides or reference antibiotics. After 24 hours of incubation, VERO cells viability was determined using the MTT (3- (4,5-dimethiazol-2-yl) -2,5-diphenyltetrazole bromide) colorimetric technique (Mosmann, 1983). To do so, 20 μL/well of MTT was added at a concentration of 5 mg/mL and incubated for 4 hours. After that time, the culture medium was removed from the wells, and 100 μL of dimethylsulfoxide was added to solubilize the formazan crystals. Absorbance was determined by spectrophotometry using a wavelength of 595 nm.
The 50% cytotoxic concentrations (CC50) were calculated by sigmoid regression analysis from the inhibition percentages using the XLFit program (^©2019 IDBS). The Selectivity Index (SI) was calculated as the ratio between CC50 in VERO cells and the MICs in E. coli O157: H7 [17]. For those compounds whose CC50 could not be determined, the maximum evaluated concentration was used to calculate the respective SI.

[6] = tested on: E. coli O157: H7 (ATCC 43888); type: cell-based, Escherichia coli O157: H7; conditions: lag phase, 0.5xMIC, at 24 hour, turbidity at 595 nm
Protocol: The kinetics of cell growth of E. coli O157: H7 in the presence of the peptides were followed during 24 hours. The tests were performed with the reference strain ATCC 43888, and the antibacterial activity of the compounds was evaluated in the latency phase (lag phase) and the logarithmic phase (log phase).
For the lag phase, E. coli O157: H7 at 5x10^5 CFU/mL with MHB in 96-well plate was treated with Ib-M peptides at a concentrations of 0.5xMIC, 1xMIC, 2xMIC in a final volume of 200 μL/well for 24 hours at 37°C. The turbidity was determined spectrophotometrically at 595 nm for samples taken at 0, 2, 4, 6, 8, 10, 12 and 24 hours.

[7] = tested on: E. coli; set-up: method as in PMID 29671805, PMID 19952307; conditions: in vitro activity reported against E. coli; cited from earlier work
[8] = clinical isolate AC188, MHB, 5x10^5 CFU/mL, mean ± S.D., triplicate in two independent experiments
[9] = strain ATCC 43888, MHB, 5x10^5 CFU/mL, mean ± S.D., triplicate in two independent experiments
[10] = clinical isolate AC188, colony count <= 10 on blood agar, mean ± S.D., triplicate in two independent experiments
[11] = strain ATCC 43888, colony count <= 10 on blood agar, mean ± S.D., triplicate in two independent experiments

| Molecule | MIC ([1]; Escherichia coli) [µM] | SI (selectivity index) E. coli O157: H7 AC188 [1] | MIC ([2]; Escherichia coli, ATCC43888) [µM] | SI (selectivity index) E. coli O157: H7 ATCC 43888 [2] | MBC ([3]; Escherichia coli) [µM] | MBC ([4]; Escherichia coli, ATCC43888) [µM] | CC50 VERO Cells [5] | MIC [1, 8] [µM] | MIC [2, 9] [µM] | MBC [3, 10] [µM] | MBC [4, 11] [µM] | percentage of E. coli growth inhibition [6] | MIC [7] [µM] |
| --- | --- | --- | --- | --- | --- | --- | --- | --- | --- | --- | --- | --- | --- |
| CNC(C)C1CCC(N)C(OC2C(N)CC(N)C(OC3OCC(C)(O)C(NC)C3O)C2O)O1 (stereo not shown) [GNT, Gentamicin, reference compound] | 2.3 ± 0.9 (≈ 1.1 µg/mL) | >1391.3 | 1.8 ± 0.6 (≈ 0.86 µg/mL) | >1777.8 | 4.2 ± 1.6 (≈ 2.01 µg/mL) | 4.7 ± 1.7 (≈ 2.24 µg/mL) | > 3200 µM and >3200 ± 0 µM | – | – | – | – | – | – |
| [H]/N=C(/N)N[C@H]1[C@H](O)[C@@H](O)[C@H](O[C@@H]2O[C@@H](C)[C@](O)(C=O)[C@H]2O[C@@H]2O[C@@H](CO)[C@H](O)[C@@H](O)[C@@H]2NC)[C@@H](N/C(N)=N\[H])[C@@H]1O [STP, Streptomycin, reference compound] | 66.7 (≈ 38.8 µg/mL) | >48 | 9.4 (≈ 5.47 µg/mL) | >340.4 | 108 (≈ 63 µg/mL) | 11.5 (≈ 6.69 µg/mL) | >3200 ± 0 µM | 66.7 ± 25.8 (≈ 38.8 µg/mL) | 9.4 ± 3.4 (≈ 5.47 µg/mL) | 108.3 ± 49.2 (≈ 63 µg/mL) | 11.5 ± 2.6 (≈ 6.69 µg/mL) | – | – |
| EWGRRMMGRGPGRRMMRRWW-NH2 [Ib-M4] | – | – | – | – | – | – | > 400 ± 0.0 µM | 6.3 ± 0.0 | 12.5 ± 0.0 | 15.6 ± 10.3 | 22.9 ± 5.1 | – | – |
| EWGRRMMGRGPGRRMMRWWR-NH2 [Ib-M1] | – | – | – | – | – | – | 395.2 ± 18.3 µM | 1.6 ± 0.0 | 4.7 ± 1.7 | 3.7 ± 1.3 | 6.3 ± 0.0 | higher than 63% | – |
| EWGRRMMGWGRGRRMMRRWW-NH2 [Ib-M6] | – | – | – | – | – | – | 310.9 ± 4.4 µM | 4.7 ± 1.7 | 9.4 ± 3.4 | 10.4 ± 3.2 | 11.5 ± 7.3 | – | – |
| EWGRRMMGWRPGRRMMRRWW-NH2 [Ib-M5] | – | – | – | – | – | – | 315.3 ± 49.1 µM | 4.7 ± 1.7 | 8.3 ± 3.2 | 7.3 ± 2.6 | 15.6 ± 7.7 | – | – |
| EWGRRMMGWRPGRRMMRWWR-NH2 [Ib-M2] | – | – | – | – | – | – | 197.5 ± 2.4 µM | 3.7 ± 1.28 | 4.7 ± 1.7 | 4.2 ± 1.6 | 6.8 ± 3.1 | – | – |
| lactoferricin | – | – | – | – | – | – | – | – | – | – | – | – | 2 |
| magainin 2 | – | – | – | – | – | – | – | – | – | – | – | – | 8 |

From article PMC7018034, “Antimicrobial activity of Ib-M peptides against Escherichia coli O157: H7” (PLoS ONE, 2020)
